# Read-outs that look alike come from different tables or passages of the source.
# What was measured:
# Fusarium sp. = experiment: Antifungal MIC (RPMI-1640 microdilution); assay type: cell-based
# Staphylococcus aureus = experiment: Antibacterial MIC (broth microdilution); assay type: cell-based
# P. variotii = experiment: Antifungal MIC (RPMI-1640 microdilution); assay type: cell-based; conditions: Paecilomyces variotii, isolate MYA-3630
# Coccidioides sp. = experiment: microbe, parasite or virus in culture; assay type: cell-based
# Aspergillus flavus = experiment: Antifungal MIC (RPMI-1640 microdilution); assay type: cell-based
# SARS-CoV-2 = experiment: microbe, parasite or virus in culture; assay type: cell-based
# Pneumocystis = Pneumocystis pneumonia in rats, therapy or prophylaxis
# [1] = system: HFF, mouse embryo fibroblast and Guinea Pig Lung cells; conditions: range over all three cytomegalovirus assays
# [2] = Maximum tolerated dose in uninfected immunosuppressed mice; assay type: in vivo, ICR mice
# Protocol: Tafenoquine succinate powder was supplied in the form of the commercial API used to make 100 mg ARAKODA tablets [therefore it was >99.8% pure and contain no excipients]. Four dosing solutions were prepared, and the concentrations of tafenoquine succinate were adjusted based on the mean mouse weight at the start of the study in order to achieve dosing groups of 2.5, 5, 10 and 20 mg/kg tafenoquine base respectively [note that tafenoquine succinate contains 79.6% tafenoquine base].
# The dosing solutions was in the form of a tafenoquine succinate suspension in the drug vehicle. A large batch [>1 liter] of the drug vehicle [0.2% v/v Tween 80 in 1% v/v methyl cellulose in sterile water] was prepared at least 96 h before the first dose was administered and kept refrigerated [4° C.]. During preparation, the batch of drug vehicle was stirred for sufficiently long to ensure a uniform composition [4 to 24 h of stirring with a magnetic stir bar may be required].
# Dosing solutions were prepared no more than 72 h prior to the first dose. Tafenoquine powder was weighed out separately for each dosing solution. After weighing, tafenoquine was transferred into an appropriately sized, transparent tube [or equivalent] containing the desired volume of drug vehicle, and gently shaken to allow development of a uniform suspension without bubble formation. The tubes containing dosing solutions were stored at [4° C.] wrapped in aluminum foil until use. Prior to use, the dosing solutions were inverted gently as required to resuspend the tafenoquine and allowed to warm temperature. Use of transparent tubes allowed for visual confirmation that an even resuspension of the drug has had been achieved prior to dosing. The above resuspension procedure was conducted the first time 48 h prior to the first day of dosing to confirm there have been no preparation issues.
# Mouse Strain—Outbred male ICR mice weighing ~28 grams were used. Mice were housed 5 per cage and had access to food and water ad libitum.
# Immune Status—Standard neutropenic immunosuppression regimen in the PK/dose tolerability study was used, which was also used in the in vivo efficacy model. This regimen utilizes cyclophosphamide and cortisone acetate to render animals immunosuppressed prior to aerosolized inoculation. • Cyclophosphamide (25 mg/mL) was dissolved by the addition of sterile water to the vial. This was administered as a dose of 250 mg/kg two days prior to inoculation. […]
# Mouse Assessment—Throughout the studies, mice were observed multiple times per day and their overall health determined. […]
# GPCMV strain 22122 = experiment: GPCMV qPCR assay in Guinea Pig Lung cells; assay type: cell-based; conditions: Cavia porcellus, 168 h, 7 d
# Plasmodium cynomolgi = conditions: for three days; cited from earlier work
# [3] = system: Aspergillus fumigatus clinical isolate 293 (Af293); experiment: Prophylactic efficacy in Aspergillus-infected immunosuppressed mice; assay type: in vivo, ICR mice; conditions: 2.5 or 5.0 mg/kg/day oral from day -2 through day +7
smiles,measurement,setting,value
COc1cc(C)c2c(Oc3cccc(C(F)(F)F)c3)c(OC)cc(NC(C)CCCN)c2n1.O=C(O)CCC(=O)O (stereo not drawn) [Tafenoquine Succinate],MIC50,"Fusarium sp.; read-out: MIC 50% inhibition, isolate FO1",8 µg/mL
same,MIC50,"Fusarium sp.; read-out: MIC 50% inhibition, isolate FS2",16 µg/mL
same,MIC50,"Fusarium sp.; read-out: MIC 50% inhibition, isolate FSI",8 µg/mL
same,MIC,"Fusarium sp.; read-out: MIC 100% inhibition, isolate FO1",16 µg/mL
same,MIC,"Fusarium sp.; read-out: MIC 100% inhibition, isolate FS2",16 µg/mL
same,MIC,"Fusarium sp.; read-out: MIC 100% inhibition, isolate FSI",16 µg/mL
same,MIC,"Staphylococcus aureus; Staphylococcus aureus, ATCC29213, isolate ATCC 29213, read-out: MIC",8 µg/mL
same,MIC,"Staphylococcus aureus; Staphylococcus aureus, isolate 6215, read-out: MIC",8 µg/mL
same,MIC,Staphylococcus aureus; isolate 6229,8 µg/mL
same,MIC50,P. variotii; read-out: MIC 50% inhibition,4 µg/mL
same,MIC,P. variotii; read-out: MIC 100% inhibition,4 µg/mL
same,MIC50,"Coccidioides sp.; read-out: MIC 50% inhibition, isolate Cocci1",4 µg/mL
same,MIC50,"Coccidioides sp.; read-out: MIC 50% inhibition, isolate Cocci2",16 µg/mL
same,MIC50,"Coccidioides sp.; read-out: MIC 50% inhibition, isolate D117-143",16 µg/mL
same,MIC,"Coccidioides sp.; read-out: MIC 100% inhibition, isolate Cocci1",8 µg/mL
same,MIC,"Coccidioides sp.; read-out: MIC 100% inhibition, isolate Cocci2",16 µg/mL
same,MIC,"Coccidioides sp.; read-out: MIC 100% inhibition, isolate D117-143",16 µg/mL
same,MIC50,"Aspergillus flavus; ATCC204304, read-out: MIC 50% inhibition, isolate ATCC 204304",4 µg/mL
same,MIC,"Aspergillus flavus; ATCC204304, read-out: MIC 100% inhibition, isolate ATCC 204304",4 µg/mL
same,MIC50,"Aspergillus flavus; read-out: MIC 50% inhibition, isolate Aflav2",8 µg/mL
same,MIC50,"Aspergillus flavus; read-out: MIC 50% inhibition, isolate Aflav3",4 µg/mL
same,MIC,"Aspergillus flavus; read-out: MIC 100% inhibition, isolate Aflav2",16 µg/mL
same,MIC,"Aspergillus flavus; read-out: MIC 100% inhibition, isolate Aflav3",8 µg/mL
"COc1cc(C)c2c(Oc3cccc(C(F)(F)F)c3)c(OC)cc(NC(C)CCCN)c2n1 (stereo not drawn) [Tafenoquine, N(4)-[2,6-Dimethoxy-4-methyl-5-[3-(trifluoromethyl)phenoxy]quinolin-8-yl]pentane-1,4-diamine]",selectivity index,SARS-CoV-2; 4-day assay,2.4
same,EC50,"SARS-CoV-2; Severe acute respiratory syndrome coronavirus 2, Vero C1008, 96 h",15.7 µM
same,corresponding steady state plasma level,Pneumocystis; prophylaxis,~36 nanogram/ml
same,effective minimum inhibitory concentration in lungs,Pneumocystis; prophylaxis,23 micrograms/g
same,corresponding steady state plasma level,Pneumocystis; treatment,approximately 125 nanogram/ml
same,effective minimum inhibitory concentration in lungs,Pneumocystis; treatment,81 micrograms/g
same,CC50s,[1],13 to 17 µM
same,mice moribund prior to the study endpoint,[2]; 10 mg/kg group,2 of 21
same,mice moribund prior to the study endpoint,[2]; 20 mg/kg group,4 of 21
same,tolerability,"[2]; 2.5 and 5.0 mg/kg oral, daily",well-tolerated
same,mouse weights on days 7/8 versus vehicle control,[2]; higher dose groups (10 and 20 mg/kg),these differences were not significant
same,EC50,GPCMV strain 22122,> 6 µM
same,dose required to eliminate the replicating blood stage forms,Plasmodium cynomolgi,6 mg/kg/day
same,dose required to kill the quiescent hypnozoites,Plasmodium cynomolgi,0.6 mg/kg/day
same,pulmonary fungal burden,[3],"dose-related, albeit non-statistically significant trend towards reduced fungal burden"
same,survival versus vehicle control,[3]; followed until day 12,no statistical differences in survival

# From patent publication US12691107B2, “Methods for the treatment and prevention of lung infections caused by gram-positive bacteria, fungus, or virus by administration of tafenoquine” (priority 2020, dated 2026)
